≈ marks a conversion by molar mass, not a printed value. Read-outs that look alike come from different tables or passages of the source.
Assays:
[1] = system: C. albicans; experiment: MFC assay, plating after the MIC test; type: cell-based; conditions: Candida albicans; also: kills > 99.9%
Method: (§1) In vitro antifungal assays. The MIC assays for C. albicans (K1, SC5314, Gu5, ATCC90028, R01, R02, R03 and R04 strains) and C. neoformans (H99, MYA737 and JEC21 strains) were conducted according to a previously described protocol. The cultured fungal cells were collected at 2.5 × 10^3 CFU/mL in RPMI 1640 medium to give the working suspension. Two- […]
(§2) Then 50 µL of the cell suspension was added to each well. Wells containing cells in RPMI without any polymer or antifungal drug were used as drug-free controls, and wells containing RPMI medium only were used as cell-free controls. The plate was gently stirred for 10 seconds and then incubated at 30 °C. After C. albicans and C. neoformans cells were incubated for 24 h and 48 h, respectively, fungal cell growth was checked visually. The MIC values were identified as the lowest concentration […]
(§3) The MFC assay for Candida and Cryptococcus was conducted after the MIC test.
(§4) An aliquot of 3 µL premixed suspension from each well was plated on the yeast extract-peptone-dextrose (YPD) agar. The plates were incubated at 30 °C for 24 h and 48 h, respectively, for C. albicans cells and C. neoformans cells. Then the plate was inspected visually for colony formation. […]

[2] = system: C. neoformans; experiment: MFC assay, plating after the MIC test; type: cell-based; conditions: Cryptococcus neoformans, 48 h; also: kills > 99.9%
Method: as §1, §2, §3, §4

[3] = system: C. neoformans; experiment: MIC assay (in vitro antifungal assay); type: cell-based; conditions: Cryptococcus neoformans, 48 h
Method: as §1
as §2, with “plate to give 50 µL compound solution in each well. Then” for “Then”, “visually.” for “visually. The MIC values were identified as the lowest concentration”

[4] = system: C. albicans (K1 strain); experiment: Killing efficiency under energy depletion; type: cell-based, Candida albicans; conditions: 2 × MFC (50 μg/mL), colony count, n = 3
Method: Energy depletion analysis. For energy depletion experiments, cell suspension of C. albicans (K1 strain) at 3.0 × 10^6 CFU/mL was pretreated with RPMI containing 5 mM NaN 3 for 1 h. For antifungal efficiency assay, a fresh cell suspension pretreated or non-pretreated with NaN 3 were incubated with 50 μg/mL PDAP 20 or without an antifungal agent (as energy depletion control) for 24 h. The fresh cell suspension without antifungal agents before and after incubation with NaN 3 for 24 h were used as the controls, respectively. The suspensions were diluted and plated on YPD agar. The plates were incubated at 30 °C for 24 h and colony amounts were counted. The cell viability after incubation at 4 °C with 50 μg/mL PDAP 20 or without an antifungal agent (as positive control) was measured using the same method.
For the confocal assay, a fresh cell suspension pretreated or non-pretreated with NaN 3 was incubated with 50 μg/mL CPM-PDAP 20 for 24 h, respectively. […]
For flow cytometry experiment, a fresh cell suspension pretreated or non-pretreated with NaN 3 was incubated with 50 μg/mL CPM-PDAP 20 for 1 h and 2 h, respectively. Fungal cells were washed by PBS to remove polymers, and 5.0 × 10^4 cells were counted and anaysized. The polymer uptake was calculated by flow cytometry (Backman). Furthermore, cell suspensions were incubated with 10 μg/mL PI for 10 min for calculated PI uptake. […]

[5] = system: Gram‐positive and Gram‐negative bacteria; experiment: Antibacterial MIC test, summary over six bacteria; type: cell-based; conditions: S. aureus, S. epidermidis, B. subtilis, E. coli, A. baumannii, K. pneumoniae
Description: aforementioned antifungal assay. Gram-positive bacteria ( S. aureus ATCC 6538, S.

[6] = system: C. albicans biofilm formation; experiment: Inhibition of biofilm formation (MTT); type: cell-based, Candida albicans; conditions: RPMI, 37 °C, 48 h, inhibits 80% of biofilm formation
Method: fresh non-treated cell suspension was used as a control. The bright field and FITC fluorescence were collected under 100× oil immersion lenses, with representative areas in the images electronically amplified sixfold.
Anti-biofilms. This study was conducted in 96-well plates (flat bottom and tissue-culture treated) by following the reported protocol with slight modifications. On each plate, wells containing RPMI only and cells in medium without any antifungal agent were used as the negative and positive control, respectively.
For biofilm formation: Freshly cultured fungal cells were collected to prepare the working suspension at 1.0 × 10^6 CFU/mL in RPMI. A two-fold serial dilution for each antifungal agent was prepared using a corresponding medium in a 96-well plate to give 100 µL of polymer solution in each well. 100 µL of the working suspension was added to each […]
followed by addition of 100 µL MTT solution (1 mg/mL). The MTT assay protocol was the same as the above mentioned protocol in fibroblast cell toxicity assay. This value was calculated from [% biofilm growth = (A polymer – Ablank)/(Acontrol – Ablank) × 100] and plotted against polymer concentration to give the dose-response graphs for inhibition of biofilm formation for each antifungal agent. The SMIC 80 value is the minimum concentration of a given agent that is necessary to inhibit 80% of fungal biofilm formation. […]

Row | Molecule | MFC ([1]; 24 h, read-out: MFC C. albicans R01) [µg/mL] | MFC ([1]; 24 h, read-out: MFC C. albicans R03) [µg/mL] | MFC ([1]; ATCC90028, 24 h, read-out: MFC C. albicans ATCC90028) [µg/mL] | MFC ([1]; SC5314, 24 h, read-out: MFC C. albicans SC5314) [µg/mL] | MFC ([2]; read-out: MFC C. neoformans JEC21) [µg/mL] | MFC ([2]; read-out: MFC C. neoformans MYA737) [µg/mL] | MIC ([3]; read-out: MIC C. neoformans H99) [µg/mL] | MIC ([3]; read-out: MIC C. neoformans JEC21) [µg/mL] | MIC ([3]; read-out: MIC C. neoformans MYA737) [µg/mL] | Fungal cells killed under energy depletion, NaN3 ([4]; 5 × 10^−3 M NaN3, 3.0 × 10^6 CFU/mL, 24 h) | Fungal cells killed under energy depletion, 4°C ([4]; at 4°C) | MIC against the six bacteria (summary) [5] | Concentration that resists biofilm formation (SMIC80) [6] [µg/mL]
1 | C[C@@H]1[C@H](O)[C@@H](C)/C=C/C=C/C=C/C=C/C=C/C=C/C=C/[C@H](O[C@@H]2O[C@H](C)[C@@H](O)[C@H](N)[C@@H]2O)C[C@@H]2O[C@](O)(C[C@@H](O)C[C@@H](O)[C@H](O)CC[C@@H](O)C[C@@H](O)CC(=O)O[C@H]1C)C[C@H](O)[C@H]2C(=O)O [AmpB, amphotericin B] | 1.6 (≈ 1.73 µM) | 1.6 (≈ 1.73 µM) | 1.6 (≈ 1.73 µM) | 1.6 (≈ 1.73 µM) | 1.6 (≈ 1.73 µM) | 1.6 (≈ 1.73 µM) | 1.6 (≈ 1.73 µM) | 1.6 (≈ 1.73 µM) | 1.6 (≈ 1.73 µM) |  |  |  | 
2 | poly(DL‐diaminopropionic acid) [PDAP20] |  |  |  |  |  |  |  |  |  | about 88% | about 88% | greater than 50 µg mL^−1 | 6.3
